Measurements: the supplement of paper PMC12463676, “Small-molecule dissolution of stress granules by redox modulation benefits ALS models” (Nature Chemical Biology, 2025)

Compound: NC(=O)CCCCC1CCSS1 [lipoamide]
Test: thermal stability z-score vs DMSO; higher = more thermally stabilized by treatment
Settings: HeLa; lipoamide concentration 100 µM; arsenate co-treatment: 1 mM arsenate 1 h
Method: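 Cellular thermal proteome profiling in HeLa cells. Cells were treated with 100 µM lipoamide for 1 h, with or without 1 mM arsenate for a further 1 h, then heated to ten temperatures (37-66.3 °C), and soluble protein was quantified by TMT mass spectrometry relative to 0.1% DMSO controls. The thermal stability score (sum of log2 fold changes minus the abundance score) was transformed to a z-score; mean of n = 3 experiments.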
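Note: each temperature applied for 3 min, abundance score taken as mean log2 fold change at the two lowest temperatures, z-score obtained by mean subtraction and division by SD.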

Chain of UniProt Q9ULF5 (Q9ULF5 whole entry): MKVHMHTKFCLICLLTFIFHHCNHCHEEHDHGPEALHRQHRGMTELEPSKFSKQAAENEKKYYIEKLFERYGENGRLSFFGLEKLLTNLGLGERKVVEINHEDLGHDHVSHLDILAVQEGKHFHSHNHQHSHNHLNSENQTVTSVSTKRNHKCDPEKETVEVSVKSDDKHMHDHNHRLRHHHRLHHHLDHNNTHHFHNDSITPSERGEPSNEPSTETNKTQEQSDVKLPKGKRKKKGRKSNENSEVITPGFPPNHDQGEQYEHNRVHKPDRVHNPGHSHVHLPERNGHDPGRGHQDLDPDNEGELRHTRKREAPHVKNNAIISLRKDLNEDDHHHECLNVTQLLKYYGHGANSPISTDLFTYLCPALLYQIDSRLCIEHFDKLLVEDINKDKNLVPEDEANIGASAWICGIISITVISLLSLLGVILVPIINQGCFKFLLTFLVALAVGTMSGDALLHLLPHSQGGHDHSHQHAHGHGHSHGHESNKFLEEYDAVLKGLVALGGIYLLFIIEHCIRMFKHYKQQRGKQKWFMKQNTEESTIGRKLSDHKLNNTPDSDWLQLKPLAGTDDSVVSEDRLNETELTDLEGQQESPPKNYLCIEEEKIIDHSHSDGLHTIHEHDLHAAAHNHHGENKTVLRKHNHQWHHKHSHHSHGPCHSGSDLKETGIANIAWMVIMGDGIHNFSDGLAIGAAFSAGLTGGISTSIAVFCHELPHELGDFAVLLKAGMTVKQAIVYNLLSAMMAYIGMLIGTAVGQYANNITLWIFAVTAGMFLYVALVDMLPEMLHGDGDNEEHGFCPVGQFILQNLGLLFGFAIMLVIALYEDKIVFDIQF
Chain of UniProt O95544 (O95544 whole entry): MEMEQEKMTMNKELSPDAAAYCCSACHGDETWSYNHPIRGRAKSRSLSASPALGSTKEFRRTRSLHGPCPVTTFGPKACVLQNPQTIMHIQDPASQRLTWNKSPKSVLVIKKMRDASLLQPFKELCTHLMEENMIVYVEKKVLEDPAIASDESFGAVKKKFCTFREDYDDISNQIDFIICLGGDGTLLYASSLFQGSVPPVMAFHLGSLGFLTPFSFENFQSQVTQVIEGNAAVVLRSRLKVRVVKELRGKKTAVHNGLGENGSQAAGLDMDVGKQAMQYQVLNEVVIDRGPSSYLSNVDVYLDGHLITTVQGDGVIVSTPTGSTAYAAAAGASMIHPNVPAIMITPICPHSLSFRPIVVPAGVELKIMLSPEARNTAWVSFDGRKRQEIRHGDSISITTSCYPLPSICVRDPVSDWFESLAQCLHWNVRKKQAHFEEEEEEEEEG
Chain of UniProt Q86SE9 (Q86SE9 whole entry): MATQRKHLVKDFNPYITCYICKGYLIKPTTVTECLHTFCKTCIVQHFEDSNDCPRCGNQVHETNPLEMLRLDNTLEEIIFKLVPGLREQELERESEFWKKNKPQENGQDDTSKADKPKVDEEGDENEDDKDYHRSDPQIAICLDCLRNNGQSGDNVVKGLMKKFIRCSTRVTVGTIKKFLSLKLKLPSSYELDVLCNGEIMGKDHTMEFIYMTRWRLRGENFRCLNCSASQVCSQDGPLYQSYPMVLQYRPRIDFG
Chain of UniProt Q9UBP0 (Q9UBP0 whole entry): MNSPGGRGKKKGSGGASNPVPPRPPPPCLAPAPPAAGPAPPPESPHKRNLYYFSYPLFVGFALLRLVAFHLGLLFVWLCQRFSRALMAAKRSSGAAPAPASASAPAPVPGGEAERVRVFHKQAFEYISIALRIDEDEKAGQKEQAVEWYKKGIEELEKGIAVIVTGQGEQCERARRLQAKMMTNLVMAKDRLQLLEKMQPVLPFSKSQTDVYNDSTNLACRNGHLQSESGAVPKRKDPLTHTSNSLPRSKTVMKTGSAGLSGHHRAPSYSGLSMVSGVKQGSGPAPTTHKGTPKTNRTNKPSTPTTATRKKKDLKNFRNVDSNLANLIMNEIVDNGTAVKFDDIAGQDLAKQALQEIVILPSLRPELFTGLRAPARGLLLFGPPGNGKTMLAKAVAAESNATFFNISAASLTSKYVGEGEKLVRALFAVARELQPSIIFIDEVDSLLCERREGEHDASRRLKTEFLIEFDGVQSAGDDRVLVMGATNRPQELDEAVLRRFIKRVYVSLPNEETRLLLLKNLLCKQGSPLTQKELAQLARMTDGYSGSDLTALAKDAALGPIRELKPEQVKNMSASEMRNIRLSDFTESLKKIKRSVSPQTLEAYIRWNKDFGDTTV
Chain of UniProt P31350 (P31350 whole entry): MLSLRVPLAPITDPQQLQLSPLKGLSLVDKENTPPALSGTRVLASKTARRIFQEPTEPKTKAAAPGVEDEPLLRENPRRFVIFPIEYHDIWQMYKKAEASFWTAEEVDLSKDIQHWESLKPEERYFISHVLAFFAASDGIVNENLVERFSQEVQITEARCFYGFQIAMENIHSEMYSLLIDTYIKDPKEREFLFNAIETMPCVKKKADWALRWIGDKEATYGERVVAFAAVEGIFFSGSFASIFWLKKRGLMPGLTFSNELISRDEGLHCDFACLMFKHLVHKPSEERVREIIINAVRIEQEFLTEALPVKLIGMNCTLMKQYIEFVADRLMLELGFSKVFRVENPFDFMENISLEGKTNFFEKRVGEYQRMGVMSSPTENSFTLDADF
Chain of UniProt Q56P03 (Q56P03 whole entry): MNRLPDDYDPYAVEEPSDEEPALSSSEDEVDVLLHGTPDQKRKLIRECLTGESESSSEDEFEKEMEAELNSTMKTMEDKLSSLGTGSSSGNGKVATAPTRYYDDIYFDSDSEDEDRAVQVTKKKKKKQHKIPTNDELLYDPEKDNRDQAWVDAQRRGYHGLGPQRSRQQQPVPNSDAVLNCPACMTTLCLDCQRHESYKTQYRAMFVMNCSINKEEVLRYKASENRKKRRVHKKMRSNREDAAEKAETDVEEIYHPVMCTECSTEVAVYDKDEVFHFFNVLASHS
Chain of UniProt Q96AQ6 (Q96AQ6 whole entry): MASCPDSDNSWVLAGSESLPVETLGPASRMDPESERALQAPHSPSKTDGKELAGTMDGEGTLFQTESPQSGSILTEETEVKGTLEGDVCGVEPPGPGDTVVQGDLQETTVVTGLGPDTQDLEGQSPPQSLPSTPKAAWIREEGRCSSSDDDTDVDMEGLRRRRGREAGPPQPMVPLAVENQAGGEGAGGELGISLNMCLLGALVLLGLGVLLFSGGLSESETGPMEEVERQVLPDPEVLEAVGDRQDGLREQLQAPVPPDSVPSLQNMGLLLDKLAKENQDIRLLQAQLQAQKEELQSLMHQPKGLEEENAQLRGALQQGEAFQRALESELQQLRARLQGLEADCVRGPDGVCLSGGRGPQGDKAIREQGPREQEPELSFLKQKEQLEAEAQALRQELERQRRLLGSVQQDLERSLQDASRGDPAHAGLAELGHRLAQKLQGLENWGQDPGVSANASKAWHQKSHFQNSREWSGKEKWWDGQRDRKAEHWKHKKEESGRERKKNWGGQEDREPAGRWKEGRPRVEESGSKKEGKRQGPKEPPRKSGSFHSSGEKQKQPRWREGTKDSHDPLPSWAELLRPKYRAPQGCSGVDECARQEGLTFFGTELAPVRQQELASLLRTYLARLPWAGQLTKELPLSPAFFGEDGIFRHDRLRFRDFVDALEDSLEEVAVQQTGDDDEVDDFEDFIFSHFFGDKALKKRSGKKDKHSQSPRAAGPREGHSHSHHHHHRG
Chain of UniProt Q9NZL9 (Q9NZL9 whole entry): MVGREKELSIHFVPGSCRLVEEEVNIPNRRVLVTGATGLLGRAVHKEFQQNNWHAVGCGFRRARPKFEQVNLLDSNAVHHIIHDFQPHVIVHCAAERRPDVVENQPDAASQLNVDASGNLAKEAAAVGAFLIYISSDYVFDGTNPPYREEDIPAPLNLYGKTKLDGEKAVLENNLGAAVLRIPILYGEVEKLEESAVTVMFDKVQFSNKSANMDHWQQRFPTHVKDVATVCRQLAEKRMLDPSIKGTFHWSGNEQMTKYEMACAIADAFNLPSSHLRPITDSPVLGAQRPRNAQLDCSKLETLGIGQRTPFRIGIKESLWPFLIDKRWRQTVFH
Chain of UniProt Q9BUL5 (Q9BUL5 whole entry): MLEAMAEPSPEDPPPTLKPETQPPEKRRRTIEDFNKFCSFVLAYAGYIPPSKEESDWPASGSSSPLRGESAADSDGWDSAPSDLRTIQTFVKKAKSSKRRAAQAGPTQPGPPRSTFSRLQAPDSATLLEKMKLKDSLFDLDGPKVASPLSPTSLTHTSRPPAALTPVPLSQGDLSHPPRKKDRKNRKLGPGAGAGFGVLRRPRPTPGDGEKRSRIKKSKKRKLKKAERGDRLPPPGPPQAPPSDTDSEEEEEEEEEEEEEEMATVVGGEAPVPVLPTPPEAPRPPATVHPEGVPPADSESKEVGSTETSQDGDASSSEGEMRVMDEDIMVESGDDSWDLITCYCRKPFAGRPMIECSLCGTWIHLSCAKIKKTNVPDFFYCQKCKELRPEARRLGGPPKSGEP
Chain of UniProt Q16342 (Q16342 whole entry): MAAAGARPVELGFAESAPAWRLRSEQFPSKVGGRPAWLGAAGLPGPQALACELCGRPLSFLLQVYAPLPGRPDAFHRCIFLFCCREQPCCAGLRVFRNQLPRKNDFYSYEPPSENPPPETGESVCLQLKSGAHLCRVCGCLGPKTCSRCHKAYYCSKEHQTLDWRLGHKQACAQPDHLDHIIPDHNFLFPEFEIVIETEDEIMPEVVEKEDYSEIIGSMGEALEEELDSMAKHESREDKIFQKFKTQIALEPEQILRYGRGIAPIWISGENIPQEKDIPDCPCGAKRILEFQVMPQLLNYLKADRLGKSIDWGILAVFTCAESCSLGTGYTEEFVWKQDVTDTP
Chain of UniProt Q15819 (Q15819 whole entry): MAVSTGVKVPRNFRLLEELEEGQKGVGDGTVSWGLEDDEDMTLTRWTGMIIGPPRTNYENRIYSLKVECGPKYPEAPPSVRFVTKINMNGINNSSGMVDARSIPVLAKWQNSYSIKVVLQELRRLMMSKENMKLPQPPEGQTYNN
Chain of UniProt P14621 (P14621 whole entry): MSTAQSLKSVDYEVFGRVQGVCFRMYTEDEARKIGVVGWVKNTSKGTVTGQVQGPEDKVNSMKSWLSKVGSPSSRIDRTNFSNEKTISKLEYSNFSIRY

Target	thermal stability z-score
UGGT1 (UniProt Q9NYU2)	-3.22
DSN1 (UniProt Q9H410)	0.0417
PBXIP1 (UniProt Q96AQ6)	-3.02
BSDC1 (UniProt Q9NW68)	-0.585
RRM2 (UniProt P31350)	0.385
ERI3 (UniProt O43414)	0.468
ACYP2 (UniProt P14621)	0.611
DSG1 (UniProt Q02413)	11
WDR5 (UniProt P61964)	1.18
HNRNPK (UniProt P61978)	-0.316
TYRO3 (UniProt Q06418)	0.189
SLC39A10 (UniProt Q9ULF5)	0.0305
PCGF5 (UniProt Q86SE9)	0.0387
PTCD3 (UniProt Q96EY7)	0.272
USO1 (UniProt O60763)	0.293
MEAF6 (UniProt Q9HAF1)	0.687
NTHL1 (UniProt P78549)	0.00215
PREP (UniProt P48147)	-0.299
ZFP36L2 (UniProt P47974)	-0.198
MAT2B (UniProt Q9NZL9)	-0.368
CCAR2 (UniProt Q8N163)	-0.42
PDCD2 (UniProt Q16342)	-0.0711
NADK (UniProt O95544)	0.88
UBE2V2 (UniProt Q15819)	0.177
ASMTL (UniProt O95671)	1.09
SASS6 (UniProt Q6UVJ0)	-0.579
MTHFD2 (UniProt P13995)	-1.43
SPAST (UniProt Q9UBP0)	-0.179
EAPP (UniProt Q56P03)	0.767
PHF23 (UniProt Q9BUL5)	0.843

Same assay, conditions: HeLa; lipoamide concentration 100 µM; arsenate co-treatment: none

Target	thermal stability z-score
UGGT1 (UniProt Q9NYU2)	-2.7
DSN1 (UniProt Q9H410)	-0.0069
PBXIP1 (UniProt Q96AQ6)	-2.69
BSDC1 (UniProt Q9NW68)	-0.361
RRM2 (UniProt P31350)	0.731
ERI3 (UniProt O43414)	0.154
ACYP2 (UniProt P14621)	0.261
DSG1 (UniProt Q02413)	13.3
WDR5 (UniProt P61964)	0.552
HNRNPK (UniProt P61978)	0.559
TYRO3 (UniProt Q06418)	-0.0901
SLC39A10 (UniProt Q9ULF5)	-0.329
PCGF5 (UniProt Q86SE9)	0.0817
PTCD3 (UniProt Q96EY7)	0.525
USO1 (UniProt O60763)	0.095
MEAF6 (UniProt Q9HAF1)	-0.0341
NTHL1 (UniProt P78549)	-0.00667
PREP (UniProt P48147)	-0.268
ZFP36L2 (UniProt P47974)	0.12
MAT2B (UniProt Q9NZL9)	-0.144
CCAR2 (UniProt Q8N163)	-0.615
PDCD2 (UniProt Q16342)	-0.181
NADK (UniProt O95544)	0.314
UBE2V2 (UniProt Q15819)	-0.304
ASMTL (UniProt O95671)	1.31
SASS6 (UniProt Q6UVJ0)	-0.207
MTHFD2 (UniProt P13995)	0.0012
SPAST (UniProt Q9UBP0)	0.818
EAPP (UniProt Q56P03)	0.459
PHF23 (UniProt Q9BUL5)	0.376

Compound: O=[As]([O-])(O)O.[K+] [potassium arsenate]
Test: as above
Settings: HeLa; arsenate concentration 1 mM
Method: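 Cellular thermal proteome profiling in HeLa cells treated with 1 mM arsenate for 1 h (DMSO pretreatment), heated to ten temperatures (37-66.3 °C). Soluble protein was quantified by TMT mass spectrometry relative to DMSO controls; the thermal stability score was transformed to a z-score; mean of n = 3 experiments.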

Target	thermal stability z-score
UGGT1 (UniProt Q9NYU2)	0.639
DSN1 (UniProt Q9H410)	0.127
PBXIP1 (UniProt Q96AQ6)	-0.357
BSDC1 (UniProt Q9NW68)	-0.209
RRM2 (UniProt P31350)	0.674
ERI3 (UniProt O43414)	0.102
ACYP2 (UniProt P14621)	-0.0225
DSG1 (UniProt Q02413)	1.69
WDR5 (UniProt P61964)	0.234
HNRNPK (UniProt P61978)	-1.69
TYRO3 (UniProt Q06418)	-0.136
SLC39A10 (UniProt Q9ULF5)	0.177
PCGF5 (UniProt Q86SE9)	-0.181
PTCD3 (UniProt Q96EY7)	-0.0411
USO1 (UniProt O60763)	0.146
MEAF6 (UniProt Q9HAF1)	-0.821
NTHL1 (UniProt P78549)	-0.137
PREP (UniProt P48147)	0.347
ZFP36L2 (UniProt P47974)	-0.0646
MAT2B (UniProt Q9NZL9)	-0.705
CCAR2 (UniProt Q8N163)	0.358
PDCD2 (UniProt Q16342)	-0.371
NADK (UniProt O95544)	-0.183
UBE2V2 (UniProt Q15819)	-0.0935
ASMTL (UniProt O95671)	-0.959
SASS6 (UniProt Q6UVJ0)	-0.481
MTHFD2 (UniProt P13995)	0.474
SPAST (UniProt Q9UBP0)	0.604
EAPP (UniProt Q56P03)	-0.167
PHF23 (UniProt Q9BUL5)	-3.81
